From ChEMBL document CHEMBL6115053, “Optimization and Characterization of N-Acetamide Indoles as Antimalarials That Target PfATP4” (J Med Chem, 2025)
Converted amounts (≈) assume the structure as drawn.

Tests used:
Plasmodium falciparum = experiment: Antiplasmodial activity against asexual Plasmodium falciparum 3D7 infected in human […] cells assessed as reduction in parasite growth measured for 72 hrs by LDH assay; type: functional, organism-based; conditions: 3D7, 72 h
HepG2 = experiment: Cytotoxicity against human HepG2 cells assessed as inhibition of cell growth incubated for 48 hrs by celltiterglo assay; type: toxicity, cell-based; conditions: hepg2, 48 h
[1] = Aqueous solubility in PBS buffer at pH 7.4; type: physicochemical
[2] = Metabolic stability in human liver microsome assessed as intrinsic clearance; type: ADME; conditions: microsomes
[3] = Metabolic stability in rat hepatocyte […] assessed as intrinsic clearance measured per 10^6 cells; type: ADME, cell-based; conditions: hepatocytes
[4] = Lipophilicity, logD of compound at pH 7.4 by shake-flask method; type: physicochemical; conditions: buffer

SMILES | EC50 (Plasmodium falciparum) | CC50 (HepG2) | also measured
Cc1nnc(-c2ccc3ccn(CC(=O)Nc4ccc(F)cc4)c3c2)o1 | 3800 nM | > 40 µM | –
Cc1cn(CC(=O)Nc2ccccc2Cl)c2cc(-c3cnn(C)c3)ccc12 | 868 nM | > 40 µM | –
CC(C(=O)Nc1ccccc1Cl)n1ccc2ccc(-c3cnn(C)c3)cc21 (stereo not drawn) | – | > 40 µM | –
Cc1ccc(-c2ccc3ccn(CC(=O)Nc4ccccc4Cl)c3c2)s1 | > 10000 nM | – | –
Cc1nnc(-c2ccc3ccn(CC(=O)Nc4ccc(C#N)cc4)c3c2)o1 | > 10000 nM | – | –
Cc1nnc(-c2ccc3ccn(CC(=O)Nc4cccc(F)c4)c3c2)o1 | 1450 nM | > 40 µM | –
CC(C)c1nnc(-c2ccc3ccn(CC(=O)Nc4ccccc4Cl)c3c2)o1 | > 10000 nM | – | –
Cc1nnc(-c2ccc3ccn(CC(=O)Nc4cc(F)ccc4Cl)c3c2)o1 | 683 nM | > 40 µM | –
Cc1nnc(-c2ccc3ccn(CC(=O)Nc4ccccc4C)c3c2)o1 | 1180 nM | – | –
CCn1cc(-c2ccc3ccn(CC(=O)Nc4ccccc4Cl)c3c2)cn1 | > 10000 nM | > 40 µM | –
CC(C)n1cc(-c2ccc3ccn(CC(=O)Nc4ccccc4Cl)c3c2)cn1 | > 10000 nM | – | –
Cc1nnc(-c2ccc3ccn(CC(=O)Nc4ccccn4)c3c2)o1 | 4780 nM | > 40 µM | –
COc1cccc(NC(=O)Cn2ccc3ccc(-c4nnc(C)o4)cc32)c1 | 3600 nM | > 40 µM | –
O=C(Cn1ccc2ccc(-c3cnn(C(F)F)c3)cc21)Nc1ccccc1Cl | 1500 nM | > 40 µM | –
Cn1cc(-c2ccc3ncn(CC(=O)Nc4ccccc4Cl)c3c2)cn1 | > 10000 nM | – | –
Cc1nnc(-c2ccc3ccn(CC(=O)Nc4ccccc4C#N)c3c2)o1 | 3480 nM | > 40 µM | –
Cc1nnc(-c2ccc3ccn(CC(=O)Nc4ccc(Cl)cc4)c3c2)o1 | 4470 nM | > 40 µM | –
Cc1nnc(-c2ccc3ccn(CC(=O)Nc4ccncc4)c3c2)o1 | 4680 nM | > 40 µM | –
O=C(Cn1ccc2ccc(-c3nnc(C(F)(F)F)o3)cc21)Nc1ccccc1Cl | > 10000 nM | – | –
Cc1nnc(-c2ccc3ccn(CC(=O)Nc4ccncc4Cl)c3c2)o1 | 7130 nM | > 40 µM | –
Cc1nnc(-c2ccc3ccn(CC(=O)Nc4cccc(Cl)c4Cl)c3c2)o1 | 1330 nM | > 40 µM | –
O=C(Cn1ccc2ccc(-c3cnn(-c4ccccc4)c3)cc21)Nc1ccccc1Cl | > 10000 nM | – | –
Cc1nnc(-c2ccc3ccn(CC(=O)Nc4cc(F)cc(F)c4)c3c2)o1 | 1180 nM | > 40 µM | –

SMILES | EC50 (Plasmodium falciparum) | CC50 (HepG2) | also measured
Cc1nn(C)c(C)c1-c1ccc2ccn(CC(=O)Nc3ccccc3Cl)c2c1 | 310 nM | > 40 µM | –
Cc1n[nH]c(C)c1-c1ccc2ccn(CC(=O)Nc3ccccc3Cl)c2c1 | 3600 nM | > 40 µM | –
Cn1cc(-c2ccc3c(F)cn(CC(=O)Nc4ccccc4Cl)c3c2)cn1 | 330 nM | > 40 µM | –
COc1ccc(NC(=O)Cn2ccc3ccc(-c4nnc(C)o4)cc32)cc1 | 7800 nM | > 40 µM | –
Cc1ncc(-c2ccc3ccn(CC(=O)Nc4ccccc4Cl)c3c2)s1 | 1900 nM | > 40 µM | –
O=C(Cn1ccc2ccc(-c3nnco3)cc21)Nc1ccccc1Cl | > 10000 nM | – | –
Cc1nnc(-c2ccc3ccn(CC(=O)Nc4cccc(C#N)c4)c3c2)o1 | 990 nM | > 40 µM | –
Cc1nnc(-c2ccc3ccn(CC(=O)Nc4ccc(C(F)(F)F)cc4)c3c2)o1 | 2100 nM | > 40 µM | –
Cc1cc(-c2ccc3ccn(CC(=O)Nc4ccccc4Cl)c3c2)cnn1 | 3650 nM | – | –
Cc1nnc(-c2ccc3ccn(CC(=O)Nc4cc(F)ccc4F)c3c2)o1 | 1250 nM | > 40 µM | –
Cc1cccc(NC(=O)Cn2ccc3ccc(-c4nnc(C)o4)cc32)c1 | 2800 nM | > 40 µM | –
Cc1c(-c2ccc3ccn(CC(=O)Nc4ccccc4Cl)c3c2)cnn1C | 248 nM | > 40 µM | –
COc1cc(NC(=O)Cn2ccc3ccc(-c4cnn(C)c4)cc32)cc(OC)c1OC | 385 nM | > 40 µM | solubility kinetic [1]: 4.6 µM (≈ 1.93 µg/mL); intrinsic clearance (CLint) [2]: 95 µL/min/mg; intrinsic clearance (CLint) [3]: 4.6 uL/min/10^6 cells; logD [4]: 3.5
Cc1nnc(-c2ccc3ccn(CC(=O)Nc4ccccc4)c3c2)o1 | 1630 nM | > 40 µM | –
Cc1nnc(-c2ccc3ccn(CC(=O)Nc4ccccc4F)c3c2)o1 | 2100 nM | > 40 µM | –
Cc1noc(-c2ccc3ccn(CC(=O)Nc4ccccc4Cl)c3c2)n1 | > 10000 nM | – | –
Cc1nnc(-c2ccc3ccn(CC(=O)N(C)c4ccccc4)c3c2)o1 | > 10000 nM | – | –
O=C(Cn1ccc2ccc(-c3cnn(CC(F)(F)F)c3)cc21)Nc1ccccc1Cl | > 10000 nM | – | –
Cn1cc(-c2cnc3ccn(CC(=O)Nc4ccccc4Cl)c3c2)cn1 | > 10000 nM | – | –
COc1cc(NC(=O)Cn2cc(Cl)c3ccc(-c4cn(C)nc4C)cc32)cc(OC)c1OC | 22 nM | – | –
Cn1cc(-c2ccc3cnn(CC(=O)Nc4ccccc4Cl)c3c2)cn1 | > 10000 nM | – | –
Cc1cccc(-c2ccc3ccn(CC(=O)Nc4ccccc4Cl)c3c2)c1 | 1110 nM | > 40 µM | –
Cc1nn(C)cc1-c1ccc2ccn(CC(=O)Nc3ccccc3Cl)c2c1 | 230 nM | > 40 µM | –

SMILES | EC50 (Plasmodium falciparum) | CC50 (HepG2) | also measured
Cn1cc(-c2ccc3ccn(CC(=O)Nc4ccccc4Cl)c3c2)c(C(F)(F)F)n1 | 43 nM | > 40 µM | solubility kinetic [1]: 2.5 µM (≈ 1.08 µg/mL); intrinsic clearance (CLint) [2]: 488 µL/min/mg; intrinsic clearance (CLint) [3]: 92 uL/min/10^6 cells; logD [4]: 4.7
Cc1nnc(-c2ccc3ccn(CC(=O)Nc4cccc(Cl)c4)c3c2)o1 | 898 nM | > 40 µM | –
Cc1ccc(-c2ccc3ccn(CC(=O)Nc4ccccc4Cl)c3c2)cn1 | > 10000 nM | – | –
Cn1cc(-c2cc3c(ccn3CC(=O)Nc3ccccc3Cl)cn2)cn1 | 8450 nM | > 40 µM | –
Cc1nnc(-c2ccc3ccn(CC(=O)Nc4ccccc4C(F)(F)F)c3c2)o1 | 3100 nM | > 40 µM | –
Cc1cc2ccc(-c3cnn(C)c3)cc2n1CC(=O)Nc1ccccc1Cl | – | > 40 µM | –
Cc1ccc(-c2ccc3ccn(CC(=O)Nc4ccccc4Cl)c3c2)cc1 | > 10000 nM | – | –
Cn1cc(-c2ccc3ccn(CC(=O)Nc4ccccc4Cl)c3n2)cn1 | 1530 nM | > 40 µM | solubility kinetic [1]: 2.5 µM (≈ 0.915 µg/mL); intrinsic clearance (CLint) [2]: 458 µL/min/mg; intrinsic clearance (CLint) [3]: 92 uL/min/10^6 cells; logD [4]: 3.3
Cc1nnc(-c2ccc3ccn(CC(=O)Nc4cccc(F)c4Cl)c3c2)o1 | 1330 nM | > 40 µM | –
Cc1nnc(-c2ccc3ccn(CC(=O)Nc4cccnc4Cl)c3c2)o1 | 1170 nM | > 40 µM | solubility kinetic [1]: 73 µM (≈ 26.8 µg/mL); intrinsic clearance (CLint) [2]: 57 µL/min/mg; intrinsic clearance (CLint) [3]: 27 uL/min/10^6 cells; logD [4]: 2.1
COc1cc(NC(=O)Cn2ccc3ccc(-c4nnc(C)o4)cc32)cc(OC)c1 | 1180 nM | > 40 µM | –
O=C(Cn1ccc2ccc(-c3cnn(C(F)(F)F)c3)cc21)Nc1ccccc1Cl | > 10000 nM | – | –
Cc1nnc(-c2ccc3ccn(CC(=O)Nc4cc(Cl)cc(Cl)c4)c3c2)o1 | 3880 nM | > 40 µM | –
Cc1nnc(-c2ccc3ccn(CC(=O)Nc4cccnc4)c3c2)o1 | 4250 nM | > 40 µM | –
Cn1ccc(-c2ccc3ccn(CC(=O)Nc4ccccc4Cl)c3c2)n1 | > 10000 nM | – | –
Cc1cc(-c2ccc3ccn(CC(=O)Nc4ccccc4Cl)c3c2)ccn1 | 2830 nM | – | –
COc1ccc(NC(=O)Cn2ccc3ccc(-c4nnc(C)o4)cc32)cc1OC | 1550 nM | > 40 µM | –
Cn1cc(-c2ccc3c(Br)cn(CC(=O)Nc4ccccc4Cl)c3c2)cn1 | 165 nM | > 40 µM | –
Cc1ccc(NC(=O)Cn2ccc3ccc(-c4nnc(C)o4)cc32)cc1 | 5350 nM | > 40 µM | –
Cc1nnc(-c2ccc3ccn(CC(=O)Nc4c(F)cccc4F)c3c2)o1 | 1650 nM | > 40 µM | –
Cc1nnc(-c2ccc3ccn(CC(=O)Nc4cccc(C(F)(F)F)c4)c3c2)o1 | 615 nM | > 40 µM | –
COc1ccccc1NC(=O)Cn1ccc2ccc(-c3nnc(C)o3)cc21 | > 10000 nM | – | –
